Measurements as given in ChEMBL document CHEMBL1201862, “PubChem BioAssay data set” (2004).
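Method: 48-hour compound exposure of cells in 96-well plates, five concentrations, linear interpolation of endpoints. GI50 marks 50% less growth.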 Active and inactive are the calls of the source. No stated cut-off is given here; in the data, active = GI50 up to about 1.1 µM and inactive = higher.

Assays:
Assay in all cases: NCI anticancer screen, dose series, 48 h
MDA-MB-435 = test system: MDA-MB-435
OVCAR-5 = test system: OVCAR-5
SNB-75 = test system: SNB-75
RXF 393 = test system: RXF 393
HT-29 = test system: HT-29
HOP-62 = test system: HOP-62
SK-MEL-28 = test system: SK-MEL-28
HCC 2998 = test system: HCC 2998
MDA-MB-231 = test system: MDA-MB-231
SR = test system: SR
SNB-19 = test system: SNB-19
NCI/ADR-RES = test system: NCI/ADR-RES
UO-31 = test system: UO-31
Malme-3M = test system: Malme-3M
UACC-62 = test system: UACC-62
OVCAR-3 = test system: OVCAR-3
NCI-H522 = test system: NCI-H522
EKVX = test system: EKVX
ACHN = test system: ACHN
SK-MEL-2 = test system: SK-MEL-2

Row | Structure (SMILES) | GI50 (MDA-MB-435) | GI50 (OVCAR-5) | GI50 (SNB-75) | GI50 (RXF 393) | GI50 (HT-29) | GI50 (HOP-62) | GI50 (SK-MEL-28) | GI50 (HCC 2998) | GI50 (MDA-MB-231) | GI50 (SR) | GI50 (SNB-19) | GI50 (NCI/ADR-RES) | GI50 (UO-31) | GI50 (Malme-3M) | GI50 (UACC-62) | GI50 (OVCAR-3) | GI50 (NCI-H522) | GI50 (EKVX) | GI50 (ACHN) | GI50 (SK-MEL-2)
1 | COC1/C=C/C(C)C(OC)CC(O)/C=C/C(C)C(C(C)C(OC)C(C)CCC(=O)C(C)C(C/C=C/N(C)C=O)OC)OC(=O)/C=C/C=C(\C)CC(OC)CC2=CC(=O)O[C@@H](C(C)C(OC)C1)[C@H]2O (some centres not stated) | 0.182 µM (active) | 0.177 µM (active) | 0.0697 µM (active) | 0.0735 µM (active) | 0.0845 µM (active) | 0.0537 µM (active) | 0.0767 µM (active) | 0.175 µM (active) | 0.0395 µM (active) | 0.0929 µM (active) | 0.0962 µM (active) | 0.195 µM (active) | 0.0998 µM (active) | 0.069 µM (active) | 0.148 µM (active) | 0.049 µM (active) | 0.146 µM (active) | 0.386 µM (active) | 0.091 µM (active) | –
2 | COCOC1C=CCCCC2=CC(C)=C(CC1)O2 (configuration not stated) | > 100 µM (inactive) | > 100 µM (inactive) | > 100 µM (inactive) | > 100 µM (inactive) | 99.1 µM (inactive) | > 100 µM (inactive) | > 100 µM (inactive) | > 100 µM (inactive) | > 100 µM (inactive) | 61.7 µM (inactive) | > 100 µM (inactive) | > 100 µM (inactive) | > 100 µM (inactive) | > 100 µM (inactive) | > 100 µM (inactive) | 68.4 µM (inactive) | > 100 µM (inactive) | > 100 µM (inactive) | > 100 µM (inactive) | –
3 | COc1cccc2cc(C(C)=O)c(=O)oc12 | > 100 µM (inactive) | > 100 µM (inactive) | > 100 µM (inactive) | > 100 µM (inactive) | > 100 µM (inactive) | > 100 µM (inactive) | > 100 µM (inactive) | > 100 µM (inactive) | > 100 µM (inactive) | > 100 µM (inactive) | – | > 100 µM (inactive) | > 100 µM (inactive) | 52.8 µM (inactive) | > 100 µM (inactive) | > 100 µM (inactive) | > 100 µM (inactive) | > 100 µM (inactive) | > 100 µM (inactive) | > 100 µM (inactive)
4 | COc1ccc(NC(=O)CSc2nc(C)nc3c2sc(=S)n3-c2ccccc2)cc1 | 7.91 µM (inactive) | > 10 µM (inactive) | 2.97 µM (inactive) | > 10 µM (inactive) | > 10 µM (inactive) | 5.27 µM (inactive) | > 10 µM (inactive) | > 10 µM (inactive) | > 10 µM (inactive) | > 10 µM (inactive) | > 10 µM (inactive) | 8.51 µM (inactive) | – | > 10 µM (inactive) | > 10 µM (inactive) | 6.15 µM (inactive) | > 10 µM (inactive) | 7.67 µM (inactive) | 4.68 µM (inactive) | –
5 | OCCN1CN(c2nc(N3CN(CCO)C3)nc(N3CN(CCO)C3)n2)C1 | 17.8 µM (inactive) | 23.1 µM (inactive) | 23.1 µM (inactive) | 22.7 µM (inactive) | 25.5 µM (inactive) | 19.3 µM (inactive) | 17.7 µM (inactive) | 19.5 µM (inactive) | 19.8 µM (inactive) | 11.2 µM (inactive) | 23 µM (inactive) | 31.1 µM (inactive) | 20 µM (inactive) | 21.5 µM (inactive) | 14.5 µM (inactive) | – | 13.4 µM (inactive) | 26.8 µM (inactive) | 31.6 µM (inactive) | 18.7 µM (inactive)
6 | CC1(C)CO[P@@](=S)(c2ccccn2)O[C@@H]1c1ccccc1 | > 100 µM (inactive) | > 100 µM (inactive) | > 100 µM (inactive) | > 100 µM (inactive) | > 100 µM (inactive) | > 100 µM (inactive) | > 100 µM (inactive) | > 100 µM (inactive) | > 100 µM (inactive) | 39.4 µM (inactive) | > 100 µM (inactive) | 75 µM (inactive) | 82.6 µM (inactive) | > 100 µM (inactive) | > 100 µM (inactive) | 18.7 µM (inactive) | 70.8 µM (inactive) | 96.8 µM (inactive) | > 100 µM (inactive) | –
7 | CCOC(=O)/C(C(N)=O)=C(/O)c1cnccn1 | > 100 µM (inactive) | > 100 µM (inactive) | > 100 µM (inactive) | > 100 µM (inactive) | > 100 µM (inactive) | – | > 100 µM (inactive) | > 100 µM (inactive) | > 100 µM (inactive) | > 100 µM (inactive) | > 100 µM (inactive) | > 100 µM (inactive) | > 100 µM (inactive) | > 100 µM (inactive) | > 100 µM (inactive) | > 100 µM (inactive) | > 100 µM (inactive) | > 100 µM (inactive) | > 100 µM (inactive) | > 100 µM (inactive)
